From PMC9304232 (Epilepsia, 2022)
Like-named read-outs stand apart in the source and are kept apart here.

Tests used:
hNaV1.6 [1] = target: T1, hNaV1.6 (Homo sapiens, UniProt Q9UQD0); experiment: Peak INa voltage‐dependent block; conditions: for Peak INa VDB, slope: Hill slope; for Ratio to persistent INa (peak INa VDB): VDB IC50 / persistent INa IC50
hNaV1.6 [2] = target: T1, hNaV1.6; experiment: Peak INa tonic block; type: cell-based; conditions: for Peak INa TB, slope: Hill slope; for Peak INa TB, slope / Ratio to persistent INa (peak INa TB): hNaV1.6; for Ratio to persistent INa (peak INa TB): TB IC50 / persistent INa IC50
hNaV1.6 [3] = target: T1, hNaV1.6; experiment: ATX‐II‐induced persistent INa, whole‐cell patch clamp; conditions: for Persistent INa, slope: Hill slope of IC50 fit, hNaV1.6
hNaV1.6 [4] = target: T1, hNaV1.6; experiment: Peak INa use‐dependent block; type: cell-based; conditions: for Peak INa UDB, 10 Hz, slope: Hill slope; for Peak INa UDB, 10 Hz, slope / Ratio to persistent INa (peak INa UDB) / Ratio to peak INa TB (peak INa UDB): hNaV1.6; for Ratio to persistent INa (peak INa UDB): UDB IC50 / persistent INa IC50; for Ratio to peak INa TB (peak INa UDB): preference of use‐dependent block over tonic block; for Use‐dependent block at a stimulation frequency of 10 Hz: hNaV1.6, Figure 2E,F
[5] = tested on: mice with Scn8a (NaV1.6‐N1768D/+, NaV1.6‐R1872W/+) or Scn2a (NaV1.2‐Q54) variants; conditions: Scn8a or Scn2a gain‐of‐function variants; ref [20], [21], [22]; cited from earlier work
male CD‐1 mice [6] = experiment: Mouse maximal electroshock seizure; type: in vivo; conditions: for EC50: Mus musculus; for MES ED50 (increasing latency to tonic extension seizures): PRAX‐562 po, CBZ and LTG ip
male CD‐1 mice [7] = experiment: Mouse spontaneous locomotor activity; type: in vivo; conditions: for sLMA TD50: PRAX‐562 po, CBZ and LTG ip, dose reducing sLMA by 50%; for sLMA TC50, free brain: calculated free brain concentration
male CD‐1 mice [8] = experiment: Protective index; type: in vivo, mouse; conditions: for PI (plasma TC50/plasma EC50): based on free plasma concentrations
[9] = tested on: hippocampal CA1 pyramidal neurons; experiment: Evoked action potential firing; type: cell-based; conditions: wild‐type mouse CA1 neurons
hNaV1.2 [10] = target: T2, hNaV1.2 (Homo sapiens, UniProt Q99250); experiment: Peak INa tonic block, patch clamp; type: cell-based; conditions: TB IC50 / persistent IC50
hNaV1.1 [11] = target: T3, hNaV1.1 (Homo sapiens, UniProt P35498); experiment: Peak INa tonic block, patch clamp; type: cell-based; conditions: TB IC50 / persistent IC50
hNaV1.5 [12] = target: T4, hNaV1.5 (Homo sapiens, UniProt Q14524); experiment: Peak INa voltage‐dependent block, patch clamp; type: cell-based; conditions: VDB IC50 / persistent IC50
hNaV1.1 [13] = target: T3, hNaV1.1; experiment: Peak INa voltage‐dependent block, patch clamp; type: cell-based; conditions: VDB IC50 / persistent IC50
hNaV1.5 [14] = target: T4, hNaV1.5; experiment: Peak INa tonic block, patch clamp; type: cell-based; conditions: TB / persistent IC50
hNaV1.2 [15] = target: T2, hNaV1.2; experiment: Peak INa voltage‐dependent block, patch clamp; type: cell-based; conditions: VDB IC50 / persistent IC50
[16] = male CD‐1 mice, po, total brain

T1 sequence (Q9UQD0 whole entry): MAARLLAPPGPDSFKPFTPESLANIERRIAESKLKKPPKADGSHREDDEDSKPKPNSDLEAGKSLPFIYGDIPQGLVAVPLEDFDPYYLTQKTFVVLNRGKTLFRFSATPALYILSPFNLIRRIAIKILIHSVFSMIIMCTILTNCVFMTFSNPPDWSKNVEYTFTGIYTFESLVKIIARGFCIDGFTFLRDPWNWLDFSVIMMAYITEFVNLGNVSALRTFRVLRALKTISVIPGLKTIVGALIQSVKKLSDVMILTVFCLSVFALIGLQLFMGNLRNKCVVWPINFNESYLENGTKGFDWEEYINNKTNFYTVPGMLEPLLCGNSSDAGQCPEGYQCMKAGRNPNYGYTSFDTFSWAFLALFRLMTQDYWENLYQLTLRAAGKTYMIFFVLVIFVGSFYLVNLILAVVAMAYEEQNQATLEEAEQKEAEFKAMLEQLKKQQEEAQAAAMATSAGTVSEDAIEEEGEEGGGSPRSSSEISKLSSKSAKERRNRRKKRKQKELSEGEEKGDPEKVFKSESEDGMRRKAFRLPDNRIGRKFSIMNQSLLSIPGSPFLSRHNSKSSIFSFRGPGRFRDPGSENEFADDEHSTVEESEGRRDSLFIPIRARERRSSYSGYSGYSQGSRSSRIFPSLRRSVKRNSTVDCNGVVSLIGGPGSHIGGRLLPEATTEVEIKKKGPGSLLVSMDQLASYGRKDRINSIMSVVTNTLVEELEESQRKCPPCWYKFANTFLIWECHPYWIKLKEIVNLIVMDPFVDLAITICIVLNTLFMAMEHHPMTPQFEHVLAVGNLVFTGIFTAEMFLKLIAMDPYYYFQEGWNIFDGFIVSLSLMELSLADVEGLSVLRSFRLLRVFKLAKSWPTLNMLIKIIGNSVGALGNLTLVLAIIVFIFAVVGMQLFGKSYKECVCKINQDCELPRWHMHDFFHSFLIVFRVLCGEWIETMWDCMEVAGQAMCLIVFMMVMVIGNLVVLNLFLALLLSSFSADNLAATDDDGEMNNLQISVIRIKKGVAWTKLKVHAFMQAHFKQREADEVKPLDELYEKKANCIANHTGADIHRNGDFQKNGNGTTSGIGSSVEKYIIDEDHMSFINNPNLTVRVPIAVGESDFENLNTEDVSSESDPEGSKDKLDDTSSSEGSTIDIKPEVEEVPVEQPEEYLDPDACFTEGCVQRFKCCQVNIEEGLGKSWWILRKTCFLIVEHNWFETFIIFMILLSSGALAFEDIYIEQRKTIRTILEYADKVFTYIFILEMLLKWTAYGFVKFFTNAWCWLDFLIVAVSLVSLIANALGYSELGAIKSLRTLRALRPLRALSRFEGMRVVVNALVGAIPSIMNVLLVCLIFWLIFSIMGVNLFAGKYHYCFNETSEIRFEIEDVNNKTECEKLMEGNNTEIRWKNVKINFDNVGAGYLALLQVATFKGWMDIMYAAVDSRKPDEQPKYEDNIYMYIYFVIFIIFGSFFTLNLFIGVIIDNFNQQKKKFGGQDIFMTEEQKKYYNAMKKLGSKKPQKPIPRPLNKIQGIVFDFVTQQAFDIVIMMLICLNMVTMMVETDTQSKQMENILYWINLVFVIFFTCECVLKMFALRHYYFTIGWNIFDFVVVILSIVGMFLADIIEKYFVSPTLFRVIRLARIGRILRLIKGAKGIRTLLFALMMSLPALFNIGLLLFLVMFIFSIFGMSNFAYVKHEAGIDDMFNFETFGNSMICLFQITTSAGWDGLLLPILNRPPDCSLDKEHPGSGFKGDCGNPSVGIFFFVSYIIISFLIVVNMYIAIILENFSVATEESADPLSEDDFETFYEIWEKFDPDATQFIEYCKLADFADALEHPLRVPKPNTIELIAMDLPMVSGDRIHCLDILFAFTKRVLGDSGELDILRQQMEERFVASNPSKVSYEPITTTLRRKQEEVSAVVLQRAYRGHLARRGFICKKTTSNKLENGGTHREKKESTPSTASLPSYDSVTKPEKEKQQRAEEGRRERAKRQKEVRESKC
T2 sequence (Q99250 whole entry): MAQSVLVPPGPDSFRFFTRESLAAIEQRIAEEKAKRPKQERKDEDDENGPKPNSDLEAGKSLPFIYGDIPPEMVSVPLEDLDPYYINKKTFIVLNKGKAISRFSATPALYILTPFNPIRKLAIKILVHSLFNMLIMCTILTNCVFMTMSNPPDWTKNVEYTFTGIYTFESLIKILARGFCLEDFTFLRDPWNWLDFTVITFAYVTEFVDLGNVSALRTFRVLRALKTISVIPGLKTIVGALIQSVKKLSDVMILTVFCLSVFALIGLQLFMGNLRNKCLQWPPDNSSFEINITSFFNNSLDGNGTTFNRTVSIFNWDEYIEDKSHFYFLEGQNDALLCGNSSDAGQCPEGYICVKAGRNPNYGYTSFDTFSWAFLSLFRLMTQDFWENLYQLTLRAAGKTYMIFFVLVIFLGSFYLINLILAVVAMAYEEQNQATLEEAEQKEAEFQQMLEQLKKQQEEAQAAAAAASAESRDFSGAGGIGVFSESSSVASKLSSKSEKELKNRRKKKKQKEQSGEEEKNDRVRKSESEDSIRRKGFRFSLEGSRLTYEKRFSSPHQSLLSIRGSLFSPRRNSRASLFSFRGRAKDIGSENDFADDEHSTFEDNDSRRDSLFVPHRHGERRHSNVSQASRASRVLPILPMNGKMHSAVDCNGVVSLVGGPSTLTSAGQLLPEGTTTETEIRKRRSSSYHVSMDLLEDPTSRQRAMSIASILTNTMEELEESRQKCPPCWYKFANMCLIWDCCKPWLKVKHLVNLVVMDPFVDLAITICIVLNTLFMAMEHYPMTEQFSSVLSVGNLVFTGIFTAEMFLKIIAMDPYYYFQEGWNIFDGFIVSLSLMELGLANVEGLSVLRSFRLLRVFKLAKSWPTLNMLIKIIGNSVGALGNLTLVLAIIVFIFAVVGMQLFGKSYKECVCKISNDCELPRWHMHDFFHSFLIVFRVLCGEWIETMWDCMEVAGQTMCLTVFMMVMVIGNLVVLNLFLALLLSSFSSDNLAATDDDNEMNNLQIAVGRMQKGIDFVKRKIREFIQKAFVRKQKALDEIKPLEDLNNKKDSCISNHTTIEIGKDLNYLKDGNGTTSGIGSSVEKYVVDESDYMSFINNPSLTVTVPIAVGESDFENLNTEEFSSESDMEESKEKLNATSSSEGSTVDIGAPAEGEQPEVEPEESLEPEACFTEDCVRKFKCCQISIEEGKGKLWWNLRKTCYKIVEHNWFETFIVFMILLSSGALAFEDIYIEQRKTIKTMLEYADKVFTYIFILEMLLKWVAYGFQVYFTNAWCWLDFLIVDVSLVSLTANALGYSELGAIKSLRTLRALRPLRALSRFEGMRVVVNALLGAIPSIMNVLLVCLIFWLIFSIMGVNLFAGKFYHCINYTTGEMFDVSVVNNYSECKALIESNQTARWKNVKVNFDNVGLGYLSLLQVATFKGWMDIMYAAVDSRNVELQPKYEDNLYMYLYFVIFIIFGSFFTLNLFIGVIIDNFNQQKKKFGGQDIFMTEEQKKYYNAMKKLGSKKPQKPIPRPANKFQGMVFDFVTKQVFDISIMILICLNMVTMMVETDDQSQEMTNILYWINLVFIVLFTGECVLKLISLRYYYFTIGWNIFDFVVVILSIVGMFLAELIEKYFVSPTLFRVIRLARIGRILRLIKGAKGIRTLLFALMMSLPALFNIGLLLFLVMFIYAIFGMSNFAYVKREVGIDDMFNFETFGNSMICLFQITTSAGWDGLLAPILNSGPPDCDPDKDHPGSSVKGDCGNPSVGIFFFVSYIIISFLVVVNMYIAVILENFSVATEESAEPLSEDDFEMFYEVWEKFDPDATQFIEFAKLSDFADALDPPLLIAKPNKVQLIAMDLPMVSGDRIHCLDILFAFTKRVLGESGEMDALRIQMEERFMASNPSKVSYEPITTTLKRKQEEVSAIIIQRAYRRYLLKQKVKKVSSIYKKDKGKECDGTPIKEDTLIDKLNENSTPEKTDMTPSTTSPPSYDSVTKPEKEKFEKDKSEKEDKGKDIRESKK

In the case of `NC(=O)N1c2ccccc2CC(=O)c2ccccc21` [Oxcarbazepine], the “Peak INa VDB, slope” value (hNaV1.6 [1]) is reported as 1.1, the “Ratio to persistent INa (peak INa VDB)” value (hNaV1.6 [1]) is reported as “.3” and the “Peak INa TB, slope” value (hNaV1.6 [2]) is reported as 1.7. The “Ratio to persistent INa (peak INa TB)” value (hNaV1.6 [2]) was 8 and the “Persistent INa, slope” value (hNaV1.6 [3]) was 1.0.

With `O=C1NC(=O)C(c2ccccc2)(c2ccccc2)N1` [Phenytoin] the “Peak INa VDB, slope” value (hNaV1.6 [1]) was 1.0, the “Ratio to persistent INa (peak INa VDB)” value (hNaV1.6 [1]) was “.8” and the “Peak INa UDB, 10 Hz, slope” value (hNaV1.6 [4]) was “.6”. The “Ratio to persistent INa (peak INa UDB)” value (hNaV1.6 [4]) was 15 and the “Persistent INa, slope” value (hNaV1.6 [3]) was “.8”.

For `FC(F)(F)Oc1ccc(-c2ccc3nnc(C(F)(F)F)n3c2)cc1` [PRAX‐330], the “Seizures and premature death in NaV DEE mouse models” value [5] is listed as “protected mice from seizures and premature death”.

With `NC(=O)O[C@@H](Cn1ncnn1)c1ccccc1Cl` [Cenobamate] the “Peak INa VDB, slope” value (hNaV1.6 [1]) was “.9”, the “Ratio to persistent INa (peak INa VDB)” value (hNaV1.6 [1]) was “.9” and the “Peak INa UDB, 10 Hz, slope” value (hNaV1.6 [4]) was “.7”. For the same compound, the “Ratio to persistent INa (peak INa UDB)” value (hNaV1.6 [4]) was 11, the “Ratio to peak INa TB (peak INa UDB)” value (hNaV1.6 [4]) was 2.3 and the “Peak INa TB, slope” value (hNaV1.6 [2]) was 1.1. For the same compound, the “Ratio to persistent INa (peak INa TB)” value (hNaV1.6 [2]) was 24 and the “Persistent INa, slope” value (hNaV1.6 [3]) was 1.1.

With `NC(=O)N1c2ccccc2C=Cc2ccccc21` [Carbamazepine, carbamazepine] the EC50 (male CD‐1 mice [6]; read-out: MES EC50, free brain) was 2410 nM, the “MES ED50 (increasing latency to tonic extension seizures)” value (male CD‐1 mice [6]; male CD‐1 mice, listed as CBZ) was 3.4 mg/kg and the “Peak INa VDB, slope” value (hNaV1.6 [1]) was “.9”. For the same compound, the “Peak INa UDB, 10 Hz, slope” value (hNaV1.6 [4]) was “.9”, the “Use‐dependent block at a stimulation frequency of 10 Hz” value (hNaV1.6 [4]) was “not observed” and the “Sedation/sLMA at the dose required for complete seizure prevention” value (male CD‐1 mice [7]; ip) was “significant reduction in sLMA”. The “sLMA TD50” value (male CD‐1 mice [7]; male CD‐1 mice, listed as CBZ) was 26.5 mg/kg, the “sLMA TC50, free brain” value (male CD‐1 mice [7]; male CD‐1 mice) was 14 350 nmol·L^–1 and the “Peak INa TB, slope” value (hNaV1.6 [2]) was 1.0. The “PI (plasma TC50/plasma EC50)” value (male CD‐1 mice [8]) was 3.4, the “Persistent INa, slope” value (hNaV1.6 [3]) was 1.1 and the IC50 (hNaV1.6 [3]; Persistent INa, IC50, hNaV1.6, 200 nmol·L^–1 ATX‐II, holding −120 mV) was 77500 nM.

With `COC[C@@H](NC(C)=O)C(=O)NCc1ccccc1` [Lacosamide] the “Peak INa VDB, slope” value (hNaV1.6 [1]) was 1.2, the “Ratio to persistent INa (peak INa VDB)” value (hNaV1.6 [1]) was “.3” and the “Peak INa UDB, 10 Hz, slope” value (hNaV1.6 [4]) was 1.3. The “Ratio to persistent INa (peak INa UDB)” value (hNaV1.6 [4]) was “.8” and the “Persistent INa, slope” value (hNaV1.6 [3]) was “.9”.

With `Nc1nnc(-c2cccc(Cl)c2Cl)c(N)n1` [Lamotrigine, lamotrigine] the EC50 (male CD‐1 mice [6]; read-out: MES EC50, free brain) was 2750 nM, the “MES ED50 (increasing latency to tonic extension seizures)” value (male CD‐1 mice [6]; male CD‐1 mice, listed as LTG) was 5.0 mg/kg and the “Peak INa VDB, slope” value (hNaV1.6 [1]) was “.9”. For the same compound, the “Peak INa UDB, 10 Hz, slope” value (hNaV1.6 [4]) was 1.0, the “Use‐dependent block at a stimulation frequency of 10 Hz” value (hNaV1.6 [4]) was “not observed” and the “sLMA TD50” value (male CD‐1 mice [7]; male CD‐1 mice, listed as LTG) was 37.6 mg/kg. For the same compound, the “sLMA TC50, free brain” value (male CD‐1 mice [7]; male CD‐1 mice) was 12 853 nmol·L^–1, the “Peak INa TB, slope” value (hNaV1.6 [2]) was “.8” and the “Persistent INa, slope” value (hNaV1.6 [3]) was 1.0.

With `CCOC(F)(F)c1nnc2cnc(-c3cnc(OCC(F)(F)F)c(F)c3)cn12` [PRAX‐562, 3‐[ethoxydifluoromethyl]‐6‐[5‐fluoro‐6‐(2,2,2‐trifluoroethoxy)pyridin‐3‐yl]‐[1,2,4]triazolo[4,3‐a]pyrazine] the “Intrinsic excitability, number of evoked APs” value ([9]; .3 µmol·L^–1) was “significantly reduced”, the AP amplitude ([9]; .3 µmol·L^–1, +200 pA) was “minimal effects” and the “Mice that did not exhibit tonic seizures” value (male CD‐1 mice [6]; 10 mg/kg po, 30 min before MES) was 11 of 12. The EC50 (male CD‐1 mice [6]; po, read-out: MES EC50, plasma) was 0.0901 µg/mL, the EC50 (male CD‐1 mice [6]; po, read-out: MES EC50, plasma, free) was 17.9 nM and the EC50 (male CD‐1 mice [6]; read-out: MES EC50, free brain) was 4.3 nM. The “MES EC50, brain” value (male CD‐1 mice [6]; [16]) was 116 ng/g, the “Peak INa VDB, slope” value (hNaV1.6 [1]) was 1.0 and the “Ratio to persistent INa (peak INa VDB)” value (hNaV1.6 [1]) was 2.2. The “Ratio to Persistent INa (Peak INa TB), hNaV1.2” value (hNaV1.2 [10]) was 80, the “Ratio to Persistent INa (Peak INa TB), hNaV1.1” value (hNaV1.1 [11]) was 173 and the “Peak INa UDB, 10 Hz, slope” value (hNaV1.6 [4]) was 1.3. For the same compound, the “Ratio to persistent INa (peak INa UDB)” value (hNaV1.6 [4]) was 2, the “Ratio to peak INa TB (peak INa UDB)” value (hNaV1.6 [4]) was 31 and the “Effect on locomotor function” value (male CD‐1 mice [7]; 10 mg/kg po) was “no effect”. The “Distance moved in sLMA” value (male CD‐1 mice [7]; 20 and 40 mg/kg po) was “reductions in the distance moved”, the “sLMA TC50, plasma, free” value (male CD‐1 mice [7]; male CD‐1 mice, po, free plasma) was 308.9 nmol·L^–1 and the “sLMA TC50, brain” value (male CD‐1 mice [7]; [16]) was 1899 ng/g. For the same compound, the “sLMA TC50, plasma” value (male CD‐1 mice [7]; male CD‐1 mice, po, total plasma) was 1.553 µg/mL, the “sLMA TC50, free brain” value (male CD‐1 mice [7]; male CD‐1 mice) was 69.7 nmol·L^–1 and the “Ratio to Persistent INa (Peak INa VDB), hNaV1.5” value (hNaV1.5 [12]) was 5.8. The “Ratio to Persistent INa (Peak INa VDB), hNaV1.1” value (hNaV1.1 [13]) was 6.3, the “Ratio to Persistent INa (Peak INa TB), hNaV1.5” value (hNaV1.5 [14]) was > 174 and the “Ratio to Persistent INa (Peak INa VDB), hNaV1.2” value (hNaV1.2 [15]) was 8.2. The “Peak INa TB, slope” value (hNaV1.6 [2]) was 1.0, the IC50 (hNaV1.6 [2]; Peak INa TB, IC50, hNaV1.6 tonic block, .1 Hz) was 8470 nM and the “Ratio to persistent INa (peak INa TB)” value (hNaV1.6 [2]) was 60. For the same compound, the “PI wider compared to CBZ and LTG” value (male CD‐1 mice [8]; acute, MES and sLMA models) was 3 ×, the “PI (plasma TC50/plasma EC50)” value (male CD‐1 mice [8]) was ~17 and the “Persistent INa, slope” value (hNaV1.6 [3]) was 1.2.
